Test results published in ChEMBL document CHEMBL1153174, “Structure-activity relationships of N-substituted ligands for the alpha7 nicotinic acetylcholine receptor” (Bioorg Med Chem Lett, 2010).
Calls of active or inactive are those of the source. No cut-off for these calls is given here.

Experiments:
[1] = target: Neuronal acetylcholine receptor; alpha4/beta2 (Rattus norvegicus) (UniProt P09483+P12390); test: Displacement of [3H]cytisine from rat brain alpha4beta2 nAChR up to 10 uM
[2] = target: Neuronal acetylcholine receptor subunit alpha-7 (Rattus norvegicus, UniProt Q05941); test: Displacement of [3H]585539 from alpha7 nAChR in rat brain; format: tissue-based
[3] = target: T1, Neuronal acetylcholine receptor subunit alpha-7 (Homo sapiens, UniProt P36544); test: Agonist activity at human recombinant alpha7 nAChR expressed in xenopus oocytes assessed as induction of Ca2+ current; format: functional, cell-based, Oocyte
[4] = target: T1, Neuronal acetylcholine receptor subunit alpha-7; test: Agonist activity at human recombinant alpha7 nAChR expressed in xenopus oocytes assessed as induction of Ca2+ current relative to acetylcholine; format: functional, cell-based; conditions: Oocyte
[5] = target: Neuronal acetylcholine receptor; alpha4/beta2 (Homo sapiens, UniProt P17787+P43681); test: Inhibition of alpha4beta2 nAChR; format: protein-complex assay
[6] = target: Neuronal acetylcholine receptor; alpha3/beta4 (Homo sapiens, UniProt P30926+P32297); test: Inhibition of alpha3beta4 nAChR
Chain of Neuronal acetylcholine receptor; alpha3/beta4 (P30926 whole entry): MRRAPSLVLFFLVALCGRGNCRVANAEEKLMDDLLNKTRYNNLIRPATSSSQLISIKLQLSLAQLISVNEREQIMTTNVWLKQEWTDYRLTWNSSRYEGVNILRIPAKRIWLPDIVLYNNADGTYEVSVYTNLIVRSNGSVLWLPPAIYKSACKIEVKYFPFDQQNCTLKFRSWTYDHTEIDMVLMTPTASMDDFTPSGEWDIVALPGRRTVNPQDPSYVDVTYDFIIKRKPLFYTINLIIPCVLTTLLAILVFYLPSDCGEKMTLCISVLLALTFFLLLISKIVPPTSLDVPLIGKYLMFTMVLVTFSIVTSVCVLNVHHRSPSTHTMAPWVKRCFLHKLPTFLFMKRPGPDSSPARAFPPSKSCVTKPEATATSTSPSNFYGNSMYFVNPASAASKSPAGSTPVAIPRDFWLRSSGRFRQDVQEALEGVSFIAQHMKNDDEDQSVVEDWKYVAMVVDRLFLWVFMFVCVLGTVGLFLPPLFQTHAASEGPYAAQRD
Chain of Neuronal acetylcholine receptor; alpha3/beta4 (P32297 whole entry): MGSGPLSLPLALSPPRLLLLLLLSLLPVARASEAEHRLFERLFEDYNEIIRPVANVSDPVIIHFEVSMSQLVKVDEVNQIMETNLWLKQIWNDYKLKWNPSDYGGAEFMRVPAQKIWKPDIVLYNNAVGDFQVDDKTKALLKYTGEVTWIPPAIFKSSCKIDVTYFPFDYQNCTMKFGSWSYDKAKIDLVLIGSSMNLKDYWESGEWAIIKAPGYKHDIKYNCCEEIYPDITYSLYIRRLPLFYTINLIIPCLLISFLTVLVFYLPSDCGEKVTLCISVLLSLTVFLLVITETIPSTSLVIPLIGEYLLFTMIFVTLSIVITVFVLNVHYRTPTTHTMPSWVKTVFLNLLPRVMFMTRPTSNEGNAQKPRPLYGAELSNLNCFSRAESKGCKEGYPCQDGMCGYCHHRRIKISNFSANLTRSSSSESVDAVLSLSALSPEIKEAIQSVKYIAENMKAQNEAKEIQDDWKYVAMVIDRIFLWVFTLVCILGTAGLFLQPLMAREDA

T1 sequence (P36544 whole entry): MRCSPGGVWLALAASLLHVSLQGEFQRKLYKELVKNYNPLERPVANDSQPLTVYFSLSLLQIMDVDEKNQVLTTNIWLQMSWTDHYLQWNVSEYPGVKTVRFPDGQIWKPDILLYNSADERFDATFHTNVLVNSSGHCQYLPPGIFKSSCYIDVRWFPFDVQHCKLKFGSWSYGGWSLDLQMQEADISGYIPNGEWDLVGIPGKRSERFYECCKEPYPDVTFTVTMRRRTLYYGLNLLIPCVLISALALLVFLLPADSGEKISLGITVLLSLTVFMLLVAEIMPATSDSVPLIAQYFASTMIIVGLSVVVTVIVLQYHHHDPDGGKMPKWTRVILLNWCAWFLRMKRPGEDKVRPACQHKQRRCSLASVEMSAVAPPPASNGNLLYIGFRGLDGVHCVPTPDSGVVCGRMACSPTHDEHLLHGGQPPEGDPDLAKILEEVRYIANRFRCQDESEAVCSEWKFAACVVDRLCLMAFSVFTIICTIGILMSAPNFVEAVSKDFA
Chain of Neuronal acetylcholine receptor subunit alpha-7 (Rattus norvegicus, UniProt Q05941) (Q05941 whole entry): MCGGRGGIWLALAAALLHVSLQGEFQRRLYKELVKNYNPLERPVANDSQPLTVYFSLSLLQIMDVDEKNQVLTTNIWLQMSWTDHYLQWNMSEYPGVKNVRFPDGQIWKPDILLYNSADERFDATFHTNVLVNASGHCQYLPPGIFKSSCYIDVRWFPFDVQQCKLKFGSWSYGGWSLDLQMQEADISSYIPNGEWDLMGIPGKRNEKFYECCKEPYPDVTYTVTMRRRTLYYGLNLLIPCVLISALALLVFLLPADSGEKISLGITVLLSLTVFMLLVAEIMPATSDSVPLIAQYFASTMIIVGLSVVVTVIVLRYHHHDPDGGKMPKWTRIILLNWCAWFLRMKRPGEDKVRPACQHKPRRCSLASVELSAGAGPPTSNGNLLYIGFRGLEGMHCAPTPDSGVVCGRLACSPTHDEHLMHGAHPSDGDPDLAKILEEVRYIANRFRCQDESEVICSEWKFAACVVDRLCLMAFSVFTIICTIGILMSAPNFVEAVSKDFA
Chain of Neuronal acetylcholine receptor; alpha4/beta2 (P17787 whole entry): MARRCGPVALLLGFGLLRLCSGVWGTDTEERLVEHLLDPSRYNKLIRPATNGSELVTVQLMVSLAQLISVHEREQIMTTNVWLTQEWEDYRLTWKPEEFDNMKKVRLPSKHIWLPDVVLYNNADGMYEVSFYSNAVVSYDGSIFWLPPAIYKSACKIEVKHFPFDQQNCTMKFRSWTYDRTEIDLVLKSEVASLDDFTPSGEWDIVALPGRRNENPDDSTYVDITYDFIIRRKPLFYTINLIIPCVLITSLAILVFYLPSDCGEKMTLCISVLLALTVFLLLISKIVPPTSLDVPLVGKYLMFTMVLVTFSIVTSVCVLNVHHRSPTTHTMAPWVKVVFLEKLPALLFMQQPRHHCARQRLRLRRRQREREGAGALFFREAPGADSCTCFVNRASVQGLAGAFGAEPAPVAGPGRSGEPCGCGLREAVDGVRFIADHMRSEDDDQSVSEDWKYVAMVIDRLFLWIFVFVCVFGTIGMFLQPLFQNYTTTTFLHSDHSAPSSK
Chain of Neuronal acetylcholine receptor; alpha4/beta2 (P43681 whole entry): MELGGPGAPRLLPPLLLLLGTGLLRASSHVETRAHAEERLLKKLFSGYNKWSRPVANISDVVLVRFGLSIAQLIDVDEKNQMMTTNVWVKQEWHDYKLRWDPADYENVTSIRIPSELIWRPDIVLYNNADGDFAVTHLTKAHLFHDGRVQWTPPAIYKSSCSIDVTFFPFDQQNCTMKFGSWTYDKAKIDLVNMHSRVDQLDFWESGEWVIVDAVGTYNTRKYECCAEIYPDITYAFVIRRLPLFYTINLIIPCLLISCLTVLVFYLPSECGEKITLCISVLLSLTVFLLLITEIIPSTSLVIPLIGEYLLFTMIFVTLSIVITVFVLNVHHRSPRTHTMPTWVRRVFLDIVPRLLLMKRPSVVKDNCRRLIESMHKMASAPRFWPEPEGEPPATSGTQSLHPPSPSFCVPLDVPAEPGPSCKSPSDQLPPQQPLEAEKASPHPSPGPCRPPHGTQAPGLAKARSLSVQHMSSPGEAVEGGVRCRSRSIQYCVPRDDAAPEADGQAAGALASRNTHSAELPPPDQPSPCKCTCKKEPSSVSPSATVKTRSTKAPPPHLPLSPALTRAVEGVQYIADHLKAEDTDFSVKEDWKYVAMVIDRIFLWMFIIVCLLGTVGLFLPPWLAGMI

SMILES | Activity [1] | Ki [2] [nM] | also measured
CCN1C[C@@H]2CN(c3ccc(-c4ccccc4)nn3)C[C@@H]2C1 | inactive | – | –
Clc1ccc(CN2C[C@@H]3CN(c4ccc(-c5ccccc5)nn4)C[C@@H]3C2)cn1 | inactive | 102 | EC50 [3]: 11800 nM; Activity [4]: 13%
CN(Cc1ccccc1)C1CCN(c2ccc(-c3ccccc3)nn2)C1 (racemic) | inactive | > 10000 | –
CN1C[C@@H]2CN(c3ccc(-c4ccccc4)nn3)C[C@@H]2[C@@H]1COc1cccnc1 | – | 320 | EC50 [3]: > 100000 nM
Clc1ccc(C2CC3CCC2N3)cn1 (stereo not drawn) | – | – | INH [5]: 0.1 nM
CN1C[C@@H]2CN(c3ccc(-c4ccccc4)nn3)C[C@@H]2[C@H]1COc1cccnc1 | – | 42 | EC50 [3]: 12900 nM; Activity [4]: 44%
c1ccc(-c2ccc(N3C[C@H]4CN(Cc5cccnc5)C[C@H]4C3)nn2)cc1 | inactive | 3.6 | EC50 [3]: 9360 nM; Activity [4]: 84%
CCN(C)C1CCN(c2ccc(-c3ccccc3)nn2)C1 (racemic) | inactive | 746 | –
CN(Cc1ccncc1)C1CCN(c2ccc(-c3ccccc3)nn2)C1 (racemic) | inactive | > 10 | –
c1ccc(CN2C[C@@H]3CN(c4ccc(-c5ccccc5)nn4)C[C@@H]3C2)cc1 | inactive | 476 | –
CN(C)C1CCN(c2ccc(-c3ccccc3)nn2)C1 (racemic) | inactive | 478 | –
CN(Cc1ccccn1)C1CCN(c2ccc(-c3ccccc3)nn2)C1 (racemic) | inactive | > 10000 | –
CN(Cc1ccc(Cl)nc1)C1CCN(c2ccc(-c3ccccc3)nn2)C1 (racemic) | inactive | > 10 | –
CNC1CCN(c2ccc(-c3ccccc3)nn2)C1 (stereo not drawn) | – | > 10 | –
c1ccc(-c2ccc(N3C[C@H]4CN(Cc5ccccn5)C[C@H]4C3)nn2)cc1 | inactive | 533 | –
c1ccc(-c2ccc(N3C[C@H]4CN(Cc5ccncc5)C[C@H]4C3)nn2)cc1 | inactive | 541 | –
CN1C[C@@H]2CN(c3ccc(-c4ccccc4)nn3)C[C@@H]2C1 | – | – | Ki [5]: > 100000 nM; Ki [6]: 4700 nM
CN(Cc1cccnc1)C1CCN(c2ccc(-c3ccccc3)nn2)C1 (racemic) | inactive | > 10000 | –
